Here are results for three compounds from patent US7718360B2, “Composition (RCUD) for protecting and/or repairing DNA from oxidative damages and a method thereof” (Council of Scientific & Industrial Research, priority 2003, dated 2010).

Numbered stars: 1 amine (or outer) side, 2 acyl side, 3 side chain; on linkers, the order of the positions; unused ones are H or OH. Bridge positions count the residues as written; N and C are the ends. Square brackets hold non-standard residues; d marks the D form. Peptide text beside a SMILES is read from it. I, II: the chains in the order shown. Actinocin(9to1) = Cc1c2oc3c(C)ccc(C(=O)[*:1])c3nc-2c(C(=O)[*:2])c(N)c1=O; NMeV = CN[C@H](C(=O)O)C(C)C; Sar = CNCC(=O)O

What all share (assay type): cell-based
Assay [1] has as its system polymorphonuclear leucocytes. Nature of the assay: DNA damage induced by hydrogen peroxide (H2O2) and protection by redistilled cow's urine distillate. How it is done: (§1) To 5 ml of whole blood 15 ml of solution A is added, mixed well and kept between 2 and 4° C. for 30 minutes. The mixture was centrifuged at 800×g for 10 minutes. The supernatant is discarded, the pellet was washed with balanced salt solution and washing is discarded after centrifugation at 800×g for 10 minutes. This step was done twice. The pellet comprises of peripheral polymorphonuclear leukocytes (PMNs) which are suspended in predetermined amount of solution B.
(§2) The volume in each tube was made up to 2 ml by adding BSS solution. The mixture is incubated at 37° C. for 1 hr in 5% CO2 incubator with 95% humidity. After incubation, 5 ml of ice cold 0.9% NaCl was added in each tube, centrifuged at 800 g for 10 minutes and the supernatant is discarded. To the pellet in each tube 1.5 ml of solution B was added. The tubes (control and three experimental) are mixed thoroughly and the mixture was equally distributed in the volume of 0.2 ml in 3 tubes designated as B, P and T, then 200 μl of solution C was added. The three tubes B, P & T, were kept in cold (0° C.) for 10 minutes after mixing well in order to lyse the cells. To tube T 400 μl of solution E was added. Thereafter, 200 μl of solution D was added to all the tubes B, P and T. The tubes were kept at 0° C. for 30 minutes. Thereafter, contents of the B tube was sonicated for 30 second three times. B, P and T were further incubated at 20° C. for 1 hr. To B and P tubes 400 μl of solution E was added and the tubes were incubated at 0° C. for 10 minutes. 1.5 ml of solution F are added to all the tubes, homogenized on a vortex shaker and subjected to fluorescence spectrophotometric analyses within 15 minutes with 520 nm excitation and at 590 nm emission. The percentage of double stranded DNA remaining was determined using the following formula.
(§3) [formula] • Where P, B and T are the fluorescence emissions at 590 nm.
(§4) One ml of PMNs suspended in solution B containing around 1×10^6 cells were taken in four tubes A, B, C and D. To tube B, 60 μl of redistilled cow urine distillate (RCUD) was added and incubated at 37° C. for 10 minutes.
(§5) To tube A only 60 μl of RCUD was added; the volume was made up with BSS. The mixture was incubated at 37° C. for 1 hr in 5% CO2 incubator with 95% humidity. The rest of the protocol was followed as described under C and D.

For assay [2], the system named is polymorphonuclear leucocytes. Nature of the assay: DNA damage induced by manganese dioxide (MnO2) and protection by redistilled cow's urine distillate. Conditions: Table 4; MnO2 20 μl alone (positive control). The protocol:
as §1
as §2, with “formula. [Krishnamurthi et al. (2003) & Bimboim & Jevcak (1981)].” for “formula.”
as §3, §4, §5

In assay [3] the test system is polymorphonuclear leucocytes. Put plainly: DNA damage induced by actinomycin D and protection by redistilled cow's urine distillate. Conditions: Table 2; Actinomycin D alone (positive control). How it is done:
as §1
as §2, with “formula. [Krishnamurthi et al. (2003) & Bimboim & Jevcak (1981)].” for “formula.”
as §3, §4, §5

Setting [4] is: Table 3, H2O2 alone (positive control).
Setting [5] is: Table 5, H2O2 10 μl alone (positive control).
Setting [6] is: Table 6, H2O2 10 μl alone (positive control).

As for `OO` [Hydrogen Peroxide (H2O2), Hydrogen Peroxide], in assay [1] (setting [4]), the “Mean, percentage of double stranded DNA remaining” value is recorded as 31 percentage; the “Set I, percentage of double stranded DNA remaining” value amounted to 20 percentage; the “Set II, percentage of double stranded DNA remaining” value was found to be 29 percentage; the “Set III, percentage of double stranded DNA remaining” value amounted to 24 percentage. Further, in assay [1] (setting [4]), the “Set IV, percentage of double stranded DNA remaining” value amounted to 43 percentage and the “Set V, percentage of double stranded DNA remaining” value came to 38 percentage. Also, in assay [1] (setting [5]), the “Mean, percentage of double stranded DNA remaining” value is given as 26 percentage; the “Set I, percentage of double stranded DNA remaining” value is recorded as 24 percentage; the “Set II, percentage of double stranded DNA remaining” value is recorded as 24 percentage; the “Set III, percentage of double stranded DNA remaining” value came out at 24 percentage. For the same compound, in assay [1] (setting [5]), the “Set IV, percentage of double stranded DNA remaining” value was 33 percentage and the “Set V, percentage of double stranded DNA remaining” value was determined as 24 percentage. For the same compound, in assay [1] (setting [6]), the “Mean, percentage of double stranded DNA remaining” value was found to be 26 percentage; the “Set I, percentage of double stranded DNA remaining” value was 24 percentage; the “Set II, percentage of double stranded DNA remaining” value was 24 percentage; the “Set III, percentage of double stranded DNA remaining” value was found to be 24 percentage. In addition, in assay [1] (setting [6]), the “Set IV, percentage of double stranded DNA remaining” value worked out at 33 percentage and the “Set V, percentage of double stranded DNA remaining” value worked out at 24 percentage.
For `[O]=[Mn]=[O]` [Manganese dioxide (MnO2), Manganese dioxide], in assay [2], the “Mean, percentage of double stranded DNA remaining” value amounted to 21 percentage; the “Set I, percentage of double stranded DNA remaining” value is listed as 22 percentage; the “Set II, percentage of double stranded DNA remaining” value was 30 percentage; the “Set III, percentage of double stranded DNA remaining” value is 22 percentage. In assay [2], the “Set IV, percentage of double stranded DNA remaining” value amounted to 15 percentage and the “Set V, percentage of double stranded DNA remaining” value is 16 percentage.
Turning to `Cc1c2oc3c(C)ccc(C(=O)N[C@@H]4C(=O)N[C@H](C(C)C)C(=O)N5CCC[C@H]5C(=O)N(C)CC(=O)N(C)[C@@H](C(C)C)C(=O)O[C@@H]4C)c3nc-2c(C(=O)N[C@@H]2C(=O)N[C@H](C(C)C)C(=O)N3CCC[C@H]3C(=O)N(C)CC(=O)N(C)[C@@H](C(C)C)C(=O)O[C@@H]2C)c(N)c1=O` [Actinomycin D] (I: T[dV]P[Sar][NMeV] / II: T[dV]P[Sar][NMeV]; ester I:1-I:C, II:1-II:C; linker I:N-II:N via Actinocin(9to1)), in assay [3], the “Mean, percentage of double stranded DNA remaining” value worked out at 38 percentage; the “Set I, percentage of double stranded DNA remaining” value was found to be 40 percentage; the “Set II, percentage of double stranded DNA remaining” value is 38 percentage; the “Set III, percentage of double stranded DNA remaining” value is reported as 44 percentage. For the same compound, in assay [3], the “Set IV, percentage of double stranded DNA remaining” value is 28 percentage and the “Set V, percentage of double stranded DNA remaining” value is recorded as 39 percentage.
